Assay: Aqueous solubility of the compound
Type: physicochemical
Conditions: buffer

solubility: Insoluble
Structure (SMILES): CC(C)=CCOc1ccc(-c2cnc(-c3ccccc3)o2)cc1

— ChEMBL document CHEMBL4028880, “Structure-Activity Relationships of New Natural Product-Based Diaryloxazoles with Selective Activity against Androgen Receptor-Positive Breast Cancer Cells” (J Med Chem, 2017)
